Test results published in publication PMC6556873, “Rapid Covalent-Probe Discovery by Electrophile-Fragment Screening” (Journal of the American Chemical Society, 2019).
Where two headings read alike, the source gives them in different places.

Assays:
in vitro [1] = experiment: in vitro; design: species or system HB2, CCD841; conditions: human, hek293 cells
in vitro [2] = experiment: in vitro; design: species or system HB2, HEK293; conditions: human, ccd841 cells
in vitro [3] = experiment: in vitro; design: species or system CCD841, HEK293; conditions: human, hb2 cells, read-out: HB-2 Cells Viability (%)
OTUB2 (OTUB2A) = biological target: T1, OTUB2 (OTUB2A) (Homo sapiens, UniProt Q96DC9); design: Intact protein LC/MS covalent labelling, fragments in pools of five, 200 uM each, 4 °C; conditions: 24 h, 4 °C, pool of five; 200 µM; covalent
T1 construct: full length residues 1-234, E. coli BL21(DE3)-R3, His tag removed by TEV, construct 27312 Da
T1 sequence (Q96DC9 1-234): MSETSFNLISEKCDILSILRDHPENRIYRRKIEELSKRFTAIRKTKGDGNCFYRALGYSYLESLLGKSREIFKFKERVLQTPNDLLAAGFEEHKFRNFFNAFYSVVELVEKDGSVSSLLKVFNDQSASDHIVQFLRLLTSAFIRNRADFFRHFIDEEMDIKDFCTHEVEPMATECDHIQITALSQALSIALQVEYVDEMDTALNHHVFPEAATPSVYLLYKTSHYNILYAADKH

BSA = biological target: T2, BSA (Bos taurus, UniProt P02769); design: Intact protein LC/MS covalent labelling, fragments in pools of five, 200 uM each, 4 °C; conditions: 24 h, 4 °C, pool of five; 200 µM; covalent
T2 construct: gene ALB

PCAF = biological target: T3, PCAF (Homo sapiens, UniProt Q92831); design: Intact protein LC/MS covalent labelling, fragments in pools of five, 200 uM each, 4 °C; conditions: 24 h, 4 °C, pool of five; 200 µM; covalent
T3 construct: gene KAT2B

NUDT7 = biological target: T4, NUDT7 (Homo sapiens, UniProt P0C024); design: Intact protein LC/MS covalent labelling, fragments in pools of five, 200 uM each, 4 °C; conditions: 24 h, 4 °C, pool of five; 200 µM; covalent
T4 construct: residues 14-235, E. coli, pNIC28-Bsa4, N-terminal His6 tag removed by TEV, construct 26672 Da
T4 sequence (P0C024 14-235): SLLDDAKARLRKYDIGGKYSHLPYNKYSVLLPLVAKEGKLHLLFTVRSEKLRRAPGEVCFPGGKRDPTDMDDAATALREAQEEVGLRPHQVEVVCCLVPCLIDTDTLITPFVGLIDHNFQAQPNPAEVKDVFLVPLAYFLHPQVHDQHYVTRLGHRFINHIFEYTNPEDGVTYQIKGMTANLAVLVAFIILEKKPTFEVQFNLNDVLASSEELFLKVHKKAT

T3 sequence (Q92831 whole entry, the tested form may be a part): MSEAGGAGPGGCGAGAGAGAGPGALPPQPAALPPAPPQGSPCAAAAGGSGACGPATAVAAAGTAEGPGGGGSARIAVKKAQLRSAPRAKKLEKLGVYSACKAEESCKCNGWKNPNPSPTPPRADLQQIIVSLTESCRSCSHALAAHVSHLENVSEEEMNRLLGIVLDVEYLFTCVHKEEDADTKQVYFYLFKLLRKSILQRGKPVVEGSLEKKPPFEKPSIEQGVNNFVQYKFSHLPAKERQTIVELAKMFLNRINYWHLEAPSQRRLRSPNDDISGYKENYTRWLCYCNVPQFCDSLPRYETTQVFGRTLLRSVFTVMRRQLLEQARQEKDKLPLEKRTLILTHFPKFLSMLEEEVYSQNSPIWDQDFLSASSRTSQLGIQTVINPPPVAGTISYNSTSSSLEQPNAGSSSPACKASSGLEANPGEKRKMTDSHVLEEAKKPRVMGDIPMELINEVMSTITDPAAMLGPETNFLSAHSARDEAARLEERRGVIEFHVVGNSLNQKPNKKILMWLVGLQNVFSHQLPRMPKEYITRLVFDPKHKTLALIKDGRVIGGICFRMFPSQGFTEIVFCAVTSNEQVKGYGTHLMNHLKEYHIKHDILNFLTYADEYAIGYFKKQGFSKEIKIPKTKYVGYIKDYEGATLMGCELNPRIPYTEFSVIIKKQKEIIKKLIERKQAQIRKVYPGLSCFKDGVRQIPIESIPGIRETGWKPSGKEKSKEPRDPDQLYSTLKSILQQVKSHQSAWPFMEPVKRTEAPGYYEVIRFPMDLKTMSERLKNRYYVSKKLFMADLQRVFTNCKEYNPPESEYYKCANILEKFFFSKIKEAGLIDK
T2 sequence (P02769 whole entry, the tested form may be a part): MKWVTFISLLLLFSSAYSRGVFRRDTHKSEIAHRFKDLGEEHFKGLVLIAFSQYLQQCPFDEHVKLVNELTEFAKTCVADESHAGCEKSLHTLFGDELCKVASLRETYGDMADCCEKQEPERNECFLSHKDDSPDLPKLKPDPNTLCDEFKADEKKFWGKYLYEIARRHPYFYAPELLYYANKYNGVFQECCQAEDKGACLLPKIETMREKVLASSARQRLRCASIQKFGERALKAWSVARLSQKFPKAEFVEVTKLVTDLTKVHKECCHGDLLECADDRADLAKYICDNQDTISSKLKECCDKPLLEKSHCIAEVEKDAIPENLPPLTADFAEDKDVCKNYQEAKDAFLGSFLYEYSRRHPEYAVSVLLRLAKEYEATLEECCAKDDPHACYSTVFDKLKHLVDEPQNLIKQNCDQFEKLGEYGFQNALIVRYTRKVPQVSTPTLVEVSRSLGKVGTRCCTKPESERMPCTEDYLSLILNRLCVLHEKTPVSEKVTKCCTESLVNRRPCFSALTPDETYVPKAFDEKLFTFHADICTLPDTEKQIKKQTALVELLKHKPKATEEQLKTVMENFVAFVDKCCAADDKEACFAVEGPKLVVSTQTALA

| SMILES | OTUB2 (OTUB2 (OTUB2A)) | BSA (BSA) | PCAF (PCAF) | NUDT7 (NUDT7) | viability at 48 h, 10 µM (in vitro [1]) [%] | viability at 48 h, 10 µM (in vitro [2]) [%] | viability at 48 h, 10 µM (in vitro [3]) [%] |
| --- | --- | --- | --- | --- | --- | --- | --- |
| C=CC(=O)N1CCN(C(=O)C23CC4CC(CC(C4)C2)C3)CC1 [PCM-0102682] | 0 | 0 | 0 | 0 | 72.7 | 103 | 102 |
| C=CC(=O)N1CCCC1c1cc(C)on1 (centres unmarked) [PCM-0102683] | 0.12 | 0 | 0 | 0 | 121 | 101 | 103 |
| C=CC(=O)N1CCC2(CC1)CNC(=O)C2 [PCM-0102690] | 0 | 0 | 0 | 0 | 95.1 | 107 | 100 |
| C=CC(=O)NCC1(O)CCS(=O)(=O)CC1 [PCM-0102691] | 0.2 | 0 | 0 | 0 | 103 | 104 | 104 |
| C=CC(=O)N1CCC(S(=O)(=O)N2CCCC2)C1 (centres unmarked) [PCM-0102701] | 0 | 0.12 | 0 | 0 | 85.2 | 95.6 | 97.8 |
| CCCNC(=O)NC(=O)CCl [PCM-0102702] | 0.22 | 0 | 0 | 0 | 82.9 | 91.6 | 91.6 |
| O=C(CCl)NCC12CC3CC(CC(C3)C1)C2 [PCM-0102706] | 0.65 | 0 | 0 | 0 | 40.8 | 76.1 | 61.3 |
| C=CCNC(=O)NC(=O)CCl [PCM-0102709] | 0 | 0 | 0 | 0 | 75.3 | 77.7 | 90 |
| C=CC(=O)N1CCN(c2nccc3sccc23)CC1 [PCM-0102715] | 0 | 0 | 0 | 0 | 78.2 | 92.1 | 97.2 |
| C=CC(=O)NCC1CCCS1 (centres unmarked) [PCM-0102719] | 0 | 0 | 0 | 0 | 86.1 | 105 | 102 |
| C=CC(=O)NC1(c2nnc[nH]2)CCC1 [PCM-0102722] | 0 | 0 | 0 | 0 | 105 | 96.7 | 102 |
| C=CC(=O)N1CCCC(C(C)NC(=O)NC(C)(C)C)C1 (centres unmarked) [PCM-0102723] | 0 | 0 | 0 | 0 | 99.2 | 109 | 105 |
| C=CC(=O)NCC1=CCCCC1 [PCM-0102726] | 0 | 0.1 | 0 | 0 | 89.9 | 99.1 | 105 |
| C=CC(=O)NCc1nnc(C(C)(C)C)s1 [PCM-0102727] | 0.18 | 0 | 0 | 0 | 100 | 108 | 105 |

Now from value to compound, other results behind:

| OTUB2 (OTUB2 (OTUB2A)) | BSA (BSA) | PCAF (PCAF) | NUDT7 (NUDT7) | SMILES | viability at 48 h, 10 µM (in vitro [1]) [%] | viability at 48 h, 10 µM (in vitro [2]) [%] | viability at 48 h, 10 µM (in vitro [3]) [%] |
| --- | --- | --- | --- | --- | --- | --- | --- |
| 0.17 | 0 | 0 | 0 | C=CC(=O)N1CC(OC(=O)Nc2cccc(F)c2)C1 [PCM-0102688] | 95.8 | 99 | 82.3 |
| 0 | 0 | 0 | 0 | C=CC(=O)N1CCCC(c2nc(-c3cccc(F)c3)no2)C1 (centres unmarked) [PCM-0102689] | 89.4 | 97.4 | 101 |
| 0 | 0 | 0 | 0.2 | O=C(CCl)N1CCCC1c1ccsc1 (centres unmarked) [PCM-0102693] | 4.6 | 37.7 | 11.7 |
| 0 | 0 | 0 | 0 | O=C(CCl)NC(=O)c1cccc2ccccc12 [PCM-0102694] | 111 | 112 | 101 |
| 0 | 0 | 0 | 0.18 | C=CC(=O)Nc1nc2ccccc2s1 [PCM-0102695] | 51.9 | 50.3 | 33.8 |
| 0.11 | 0 | 0 | 0 | O=C(CCl)Nc1cccc(C(=O)O)c1 [PCM-0102696] | 84.6 | 86.9 | 90.3 |
| 0 | 0 | 0 | 0.22 | CC1CC(=O)Nc2ccccc2N1C(=O)CCl (centres unmarked) [PCM-0102697] | 52.8 | 62.6 | 83.7 |
| 0.07 | 0 | 0 | 0.83 | O=C(CCl)Nc1nc2ccccc2s1 [PCM-0102698] | 65.6 | 77.5 | 64.2 |
| 0 | 0 | 0 | 0 | Cc1cc(NC(=O)CCl)n(-c2ccccc2C)n1 [PCM-0102699] | 36.9 | 81.6 | 58.9 |
| 0.17 | 0 | 0 | 0.4 | N#Cc1ccc(Cl)cc1NC(=O)CCl [PCM-0102700] | 64.8 | 68.1 | 57.6 |
| 0 | 0 | 0 | 0.3 | CN(C(=O)CCl)C1CCCc2ccccc21 (centres unmarked) [PCM-0102703] | 5.8 | 25.8 | 6.6 |
| 0 | 0 | 0 | 0.25 | O=C(CCl)N1CCN(S(=O)(=O)c2ccc(Cl)cc2)CC1 [PCM-0102704] | 2.7 | 18.8 | 2.5 |
| 0 | 0 | 0 | 0 | O=C(CCl)N1CCc2cc(S(=O)(=O)N3CCCCC3)ccc21 [PCM-0102705] | 51.1 | 28.8 | 4.2 |
| 0.12 | 0 | 0 | 0 | CC(c1ccccc1)N1CCN(C(=O)CCl)CC1.Cl (centres unmarked) [PCM-0102710] | 41.3 | 72.5 | 36.7 |
| 0 | 0 | 0 | 0 | O=C(CCl)NC(=O)c1ccc(Cl)cc1 [PCM-0102711] | 103 | 96.8 | 98.9 |
| 0 | 0 | 0 | 0.16 | C=CC(=O)NCC1COc2ccccc2O1 (centres unmarked) [PCM-0102713] | 76.1 | 102 | 99 |
| 0 | 0 | 0 | 0 | C=CC(=O)N1CCOCC1c1cccn1C (centres unmarked) [PCM-0102721] | 97.2 | 92.8 | 102 |
| 0 | 0 | 0 | 0 | C=CC(=O)N(C)CC(=O)N1c2ccccc2NC(=O)CC1C (centres unmarked) [PCM-0102729] | 107 | 107 | 104 |
